This data set can be described thus: Animal PK: oral availability of 53b in cynomolgus monkeys after dosing of Formula I prodrugs. Format: in vivo. To be noted: 53b dosed IV. Here is the method:
The ability of prodrugs of the present invention to deliver 53a or 53b to the systemic circulation after oral dosing was assessed by methods well known in the art. For Table 1, each test compound was formulated into a solution for oral dosing by dissolving the compound in either an aqueous buffer such as PBS at pH 3 or pH 7 (in a solution of 100% propylene glycol), or in a solution containing a solubilizer such as Cremophor EL, Tween80, or PEG400. The solution of the compound was dosed by oral gavage to cynomolgus monkeys, generally using a group of four animals for each experiment. Plasma samples were collected from the animals at several time points (usually, from 6 to 12 time points were used) within 24 hours. The plasma samples were frozen quickly after collection, and thawed immediately before sample preparation for bioanalysis. […]
Calibration standards were prepared by serial dilution of an initial concentrated standard of the analyte with either animal plasma or cell culture media. […] The acceptance of the calibration curves was based on the accuracy of the back-calculated standard concentrations. A standard was accepted if the accuracy was within 15% for all the standards, except for the lower limit of quantitation for which 20% was applied. The fitted calibration curve was used to calculate the quantity of analyte in samples. […]

As a reminder, the AUC(0-inf) is total exposure, with the tail of the curve extrapolated.

Turning to `Nc1nc2c(sc(=O)n2C2O[C@H](CO)[C@H](O)[C@H]2O)c(=O)[nH]1` (some centres unmarked) [Compound 53b], the FPO (10 mg/kg (reference for the ratio)) is 1. In addition, the AUC(0-inf) (cynomolgus monkey, plasma, 10 mg/kg, cynomolgus monkeys, mean of all individual AUC(0-inf) values) is 15.2 µg·h/mL.

The values above are taken from US7528115B2, “Carbonate and carbamate prodrugs of thiazolo[4,5-d]pyrimidines” (Anadys Pharmaceuticals, Inc., priority 2006, dated 2009).
